Tests used:
STAT3 = STAT3 reporter gene assay (luciferase), LNCaP stable cell line pSTAT3-TA-luc, IL-6 stimulation; assay type: cell-based, human; conditions: Homo sapiens
In short: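 LNCaP cells stably carrying pSTAT3-TA-luc were plated 24 h in 3% DCC-FBS medium, then given compound followed by IL-6 (10 ng/mL final) for 24 h at 37 °C. Luciferase was read from lysates, with CellTiter-Glo viability on a duplicate plate. Stimulated 0.1% DMSO wells served as uninhibited control.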

STAT1 = STAT1 reporter gene assay (luciferase), U2OS stable cell line pGL4-STAT1-TA-luc, IFN-γ stimulation; assay type: cell-based, human; conditions: Homo sapiens, IFN-γ 50 ng/mL, 8 hours, read-out: IC50 (μM) pSTAT1
In short: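 U2OS cells stably carrying a STAT1-driven luciferase reporter were treated with serially diluted compounds plus IFN-γ (50 ng/mL final) for 8 h at 37 °C in 10% FBS medium. Luciferase read after lysis; parallel plate assessed for cytotoxicity by CellTiter-Glo.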

[1] = system: LNCaP prostate cancer cell line; assay: Cell growth inhibition assay, LNCaP (CellTiter-Glo); assay type: cell-based; conditions: Homo sapiens; LNCaP, 10,000 cells/well, medium with 10 ng/mL IL-6, 96 hours
In short: (§1)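 Cells seeded at 3,000 (DU-145), 5,000 (NCI-N87) or 10,000 (LNCaP, MDA-MB-468) per well, LNCaP in medium with 10 ng/mL IL-6. Serially diluted compound for 96 h at 37 °C (MDA-MB-468 in air, others 5% CO2); viability by CellTiter-Glo luminescence versus 0.1% DMSO wells.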

[2] = system: DU-145 prostate cancer cell line; assay: Cell growth inhibition assay, DU-145 (CellTiter-Glo); assay type: cell-based; conditions: Homo sapiens; DU-145, 3,000 cells/well, 96 hours
In short: as §1

[3] = system: NCI-N87 stomach cancer cell line; assay: Cell growth inhibition assay, NCI-N87 (CellTiter-Glo); assay type: cell-based; conditions: Homo sapiens; NCI-N87, 5,000 cells/well, 96 hours
In short: as §1

[4] = system: MDA-MB-468 breast cancer cell line; assay: Cell growth inhibition assay, MDA-MB-468 (CellTiter-Glo); assay type: cell-based; conditions: Homo sapiens, MDA-MB-468, 96 hours
Protocol: The inhibitory effects of the compounds of the present invention against the growth of cancer cells were evaluated as shown below. The cancer cell lines including prostate cancer cell lines (LNCaP, DU-145), stomach cancer cell line (NCI-N87), and breast cancer cell lines (MDA-MB-468) were cultured under the protocol provided by each supplier. A medium supplemented with 10 ng/mL of IL-6 was used for LNCaP, a prostate cancer cell line, when treated with a drug. Each type of cells to be used in experiments was sub-cultured in a 96-well plate by counting the exact number of cells using Tali™ Image-based Cytometer (Life Technologies). In a 96-well plate, DU-145 was employed with 3,000 cells/well; NCI-N87 was employed with 5,000 cells/well; and LNCaP and MDA-MB-468 were employed with 10,000 cells/well. The cells were treated with the compounds listed in Examples which were diluted in various concentrations. Upon completion of the compounds treatment, LNCaP, DU-145, NCI-N87 cells were cultured at 37° C. under 5% CO2 for 96 hours, and MDA-MB-468 cells were cultured at 37° C. in air for 96 hours. Subsequently, the cells were observed under microscope and drug precipitation and particular findings were investigated and recorded. And then, the 96-well plate was placed at room temperature for 30 minutes, added with 20 pt/well of CellTiter-Glo solution (Cat No. G7573, Promega) and shaken for 10 minutes, followed by being subjected to the measurement using PHERAstar™ microplate reader (BMG LABTECH) according to the supplier's general luminometer protocol. Wells where only culture liquid added without cell plating were used as a negative control, whereas wells where culture liquid containing 0.1% DMSO instead of the compounds listed in Examples were used as a positive control.

| IC50 (STAT3) [µM] | IC50 (STAT1) [µM] | IC50 [1] [µM] | IC50 [2] [µM] | IC50 [3] [µM] | IC50 [4] [µM] | Structure (SMILES) |
| --- | --- | --- | --- | --- | --- | --- |
| 0.021 | > 50 | 0.013 | 0.0057 | 0.034 | 0.0065 | CC(C)(c1ccc2sc(C(=O)Nc3cc(Cl)nc(Oc4ccc(Cl)cc4)c3)cc2c1)S(C)(=O)=O [Example 64, N-(2-chloro-6-(4-chlorophenoxy)pyridin-4-yl)-5-(2-(methylsulfonyl)propan-2-yl)benzo[b]thiophene-2-carboxamide] |
| 0.005 | > 50 |  |  | 0.033 | 0.0038 | CC(C)(c1ccc2sc(C(=O)Nc3cc(Cl)nc(Oc4cccc(OC(F)(F)F)c4)c3)cc2c1)S(C)(=O)=O [Example 81, N-(2-chloro-6-(3-(trifluoromethoxy)phenoxy)pyridin-4-yl)-5-(2-(methylsulfonyl)propan-2-yl)benzo[b]thiophene-2-carboxamide] |
| 0.2 | > 50 |  |  | 0.91 | 0.062 | Cc1onc(Oc2cc(NC(=O)c3cc4cc(C(C)(C)S(C)(=O)=O)ccc4s3)cc(Cl)n2)c1C [Example 116, N-(2-chloro-6-((4,5-dimethylisoxazol-3-yl)oxy)pyridin-4-yl)-5-(2-(methylsulfonyl)propan-2-yl)benzo[b]thiophene-2-carboxamide] |
| 0.028 | > 50 |  |  | 0.037 | 0.0053 | CC(C)(c1ccc2sc(C(=O)Nc3cc(Cl)nc(Oc4csc(C(F)(F)F)c4)c3)cc2c1)S(C)(=O)=O [Example 117, N-(2-chloro-6-((5-(trifluoromethyl)thiophen-3-yl)oxy)pyridin-4-yl)-5-(2-(methylsulfonyl)propan-2-yl)benzo[b]thiophene-2-carboxamide] |
